Laboratory results from ChEMBL document CHEMBL1201862, “PubChem BioAssay data set” (2004).
Activity calls are given as the source filed them.

Experiments:
Wee1-like protein kinase = Wee1-like protein kinase (Homo sapiens, UniProt P30291); assay: Navigating the Kinome. Panel member name: WEE1; type: functional
[1] = molecular target: ALK tyrosine kinase receptor (Homo sapiens, UniProt Q9UM73); type: functional;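 note: ALK tested as one member of a kinase panel screen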
[2] = molecular target: T1, Calpain-2 catalytic subunit (Sus scrofa, UniProt P43367); assay: m-calpain protease blockers, concentration series – biochemical, fluorogenic peptide substrate, dose response (AID 1420); type: functional
T1 sequence (P43367 whole entry): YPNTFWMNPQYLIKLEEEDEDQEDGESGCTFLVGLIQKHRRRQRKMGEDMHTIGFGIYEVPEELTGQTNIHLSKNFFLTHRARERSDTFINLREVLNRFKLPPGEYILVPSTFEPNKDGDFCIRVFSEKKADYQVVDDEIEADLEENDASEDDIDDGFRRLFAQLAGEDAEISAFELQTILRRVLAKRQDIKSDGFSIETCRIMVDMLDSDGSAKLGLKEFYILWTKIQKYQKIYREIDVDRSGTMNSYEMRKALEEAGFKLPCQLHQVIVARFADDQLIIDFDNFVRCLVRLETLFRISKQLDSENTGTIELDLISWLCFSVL

[3] = molecular target: T2, High affinity choline transporter 1 (Homo sapiens, UniProt Q9GZV3); assay: human choline transporter blockers, potency – cell-based, 5-point CRC, membrane potential dye, dose response (AID 504840); type: functional
T2 sequence (Q9GZV3 whole entry): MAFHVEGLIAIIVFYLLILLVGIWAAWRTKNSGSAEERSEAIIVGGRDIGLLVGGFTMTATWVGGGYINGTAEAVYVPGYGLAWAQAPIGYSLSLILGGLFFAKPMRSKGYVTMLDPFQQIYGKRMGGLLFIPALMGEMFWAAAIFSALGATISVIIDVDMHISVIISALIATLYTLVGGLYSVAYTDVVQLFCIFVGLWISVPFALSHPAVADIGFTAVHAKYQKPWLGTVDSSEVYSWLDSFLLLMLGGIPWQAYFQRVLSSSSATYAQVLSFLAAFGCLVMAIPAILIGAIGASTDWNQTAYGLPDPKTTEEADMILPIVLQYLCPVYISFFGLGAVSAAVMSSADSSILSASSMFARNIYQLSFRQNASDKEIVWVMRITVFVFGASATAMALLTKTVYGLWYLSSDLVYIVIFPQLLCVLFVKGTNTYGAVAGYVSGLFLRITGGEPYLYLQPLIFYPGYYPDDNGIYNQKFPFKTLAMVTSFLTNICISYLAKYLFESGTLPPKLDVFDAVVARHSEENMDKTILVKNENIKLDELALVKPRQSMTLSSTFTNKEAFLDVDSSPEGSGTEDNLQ

[4] = molecular target: T2, High affinity choline transporter 1; assay: human choline transporter blockers, potency – cell-based, 10-point CRC, membrane potential dye, dose response (AID 588401); type: functional;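 note: membrane potential dye fluorescence of choline-evoked depolarization via CHT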
[5] = A High Throughput Confirmatory Assay used to Identify Novel Compounds that Inhibit Mycobacterium Tuberculosis in the absence of Glycerol using Purified and Synthesized Compounds (3).; type: functional
[6] = HPDE-C7 pancreatic duct cell viability loss – fluorescence, HTS (AID 430); type: functional, cell-based; settings: Homo sapiens
[7] = blockers of bursicon-stimulated LGR2 cAMP reporter – cell-based, HEK293, CRE-luciferase reporter, cherry pick, set 2, dose response (AID 743343); type: functional;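 note: transfected cells were stimulated with diluted bursicon conditioned medium after compound addition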
[8] = A549 cell cytotoxicity, dose response, cytotoxicity control, plate reader, cherry-pick, antagonist series (AID 743412); type: functional, cell-based
[9] = viability loss in HEK293 cells – cell-based, plate reader, cherry-picked samples, cytotoxicity control, dose response (AID 743446); type: functional
[10] = cAMP pathway inhibition in counterscreen cell line – TR-FRET cAMP detection, counter-screen for MC4R biased antagonist project, dose response (AID 602305); type: functional, cell-based;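 note: U2OS cells stimulated with forskolin near its EC80 as the cAMP inducer; potency is for inhibition of forskolin-stimulated cAMP signaling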
[11] = DRD fibroblast viability loss – cell-based, non-viral oncogenic, luminescence, dose response (AID 1934); type: functional; settings: Homo sapiens
Melanocortin receptor 4 = Melanocortin receptor 4 (Homo sapiens, UniProt P32245); assay: inhibitors of MC4R cAMP signaling – cell-based, TR-FRET, biased antagonists, dose response (AID 602298); type: functional;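 note: antagonist potency against agonist-stimulated cAMP production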
[12] = Luminescence Cell-Based Dose Response HTS to Identify Inhibitors of 5'UTR Stem-Loop Driven Prion Protein mRNA Translation in H4 Neuroglioblastoma Cells. [Related pubchem assays: 1827 (Project Summary), 1813 (Primary HTS)]; type: functional
BJ [13] = assay: BJ-TERT fibroblast viability loss – cell-based, RAS-independent, luminescence, dose response (AID 1933); type: functional; settings: Homo sapiens
[14] = luciferase reporter signal suppression in cells – H4 neuroglioma cells, luminescence, dose response (AID 1990); type: functional, cell-based
[15] = viability loss of HPDE-C7K cells – cell-based, fluorescence, HTS, primary screen (AID 431); type: functional; settings: Homo sapiens
[16] = reduced cellular PGC1a acetyl-lysine signal – cell-based, cherry-picked samples, dose response (AID 720514); type: functional;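 note: potency may reflect raised or lowered acetylation signal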
BJ [17] = assay: BJ-TERT-LT-ST fibroblast viability loss – cell-based, RAS-independent, luminescence, dose response (AID 1935); type: functional; settings: Homo sapiens;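 note: BJ fibroblasts immortalized with TERT plus LT and ST oncogenes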
[18] = blockade of melanocortin 4 receptor signaling – cell-based, plate reader, cherry pick, counter-screen for LGR2 antagonist project, dose response (AID 743444); type: functional;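 note: transfected HEK 293 cells stimulated with alpha-MSH peptide; potency of inhibitors of the alpha-MSH evoked signal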
[19] = toxicity toward HepG2 liver cells – cell-based, plate reader, cherry-pick, antagonist series, cytotoxicity control, dose response (AID 743416); type: functional
BJ [20] = assay: cells; type: functional, cell-based; settings: Homo sapiens
[21] = alpha-synuclein stem-loop luciferase translation blockers – H4 neuroglioma cells, luminescence, confirmation (AID 1988); type: functional, cell-based
[22] = molecular target: Latent membrane protein 1 (Human herpesvirus 4 (strain B95-8), UniProt P03230); assay: LMP1 TES1 pathway selectivity over dsRED control – imaging, HEK293T, dual-color eGFP/dsRED, cherry-picks, selectivity assay for LMP1 NF-kB inhibitor project, dose response (AID 588398); type: functional, cell-based
Hexokinase HKDC1 = molecular target: T3, Hexokinase HKDC1 (Homo sapiens, UniProt Q2TB90); assay: activation of HKDC1 glucose phosphorylation – biochemical, W721R variant, dose response (AID 504730); type: functional
T3 sequence (Q2TB90 whole entry): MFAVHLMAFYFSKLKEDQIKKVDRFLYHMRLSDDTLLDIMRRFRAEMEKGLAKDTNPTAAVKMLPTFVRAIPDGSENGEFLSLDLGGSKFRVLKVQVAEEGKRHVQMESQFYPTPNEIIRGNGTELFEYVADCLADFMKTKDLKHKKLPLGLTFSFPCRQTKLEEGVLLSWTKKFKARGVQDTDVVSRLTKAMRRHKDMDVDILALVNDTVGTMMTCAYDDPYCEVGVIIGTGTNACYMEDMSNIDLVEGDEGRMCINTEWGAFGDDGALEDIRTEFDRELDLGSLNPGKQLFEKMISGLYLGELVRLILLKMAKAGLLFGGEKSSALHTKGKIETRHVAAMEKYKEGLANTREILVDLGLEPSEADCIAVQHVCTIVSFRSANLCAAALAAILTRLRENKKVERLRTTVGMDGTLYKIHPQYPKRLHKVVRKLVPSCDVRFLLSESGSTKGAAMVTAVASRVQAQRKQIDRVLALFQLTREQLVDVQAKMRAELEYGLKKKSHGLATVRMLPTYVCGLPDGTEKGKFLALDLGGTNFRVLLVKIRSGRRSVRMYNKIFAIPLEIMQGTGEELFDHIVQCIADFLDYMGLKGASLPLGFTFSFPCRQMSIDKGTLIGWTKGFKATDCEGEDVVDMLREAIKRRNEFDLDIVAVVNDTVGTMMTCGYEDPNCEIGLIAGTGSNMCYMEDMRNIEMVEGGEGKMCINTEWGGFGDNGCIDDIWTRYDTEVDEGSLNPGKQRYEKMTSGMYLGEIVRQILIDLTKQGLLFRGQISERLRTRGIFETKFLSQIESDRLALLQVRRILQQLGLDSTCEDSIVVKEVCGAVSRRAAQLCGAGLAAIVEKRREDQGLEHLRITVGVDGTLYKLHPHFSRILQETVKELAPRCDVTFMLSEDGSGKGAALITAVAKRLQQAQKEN

Hexokinase-1 = Hexokinase-1 (Homo sapiens, UniProt P19367); assay: HK1 enzyme activation by HKDC1 hits – biochemical, selectivity assay for HKDC1 activator project, dose response (AID 504762); type: functional
Nonstructural protein 1 = Nonstructural protein 1 (Influenza A virus, UniProt Q194T2); type: functional, Influenza A virus (A/California/07/2009(H1N1))
[23] = molecular target: Melanin-concentrating hormone receptor 1 (Homo sapiens, UniProt Q99705); assay: Late-stage fluorescence-based counterscreen for antagonists of the G-protein coupled receptor 7 (GPR7): cell-based dose response assay to identify antagonists of the melanin-concentrating hormone receptor 1 (MCHR1) Set 5.; type: functional
Melanin-concentrating hormone receptor 1, sequence (Q99705 whole entry): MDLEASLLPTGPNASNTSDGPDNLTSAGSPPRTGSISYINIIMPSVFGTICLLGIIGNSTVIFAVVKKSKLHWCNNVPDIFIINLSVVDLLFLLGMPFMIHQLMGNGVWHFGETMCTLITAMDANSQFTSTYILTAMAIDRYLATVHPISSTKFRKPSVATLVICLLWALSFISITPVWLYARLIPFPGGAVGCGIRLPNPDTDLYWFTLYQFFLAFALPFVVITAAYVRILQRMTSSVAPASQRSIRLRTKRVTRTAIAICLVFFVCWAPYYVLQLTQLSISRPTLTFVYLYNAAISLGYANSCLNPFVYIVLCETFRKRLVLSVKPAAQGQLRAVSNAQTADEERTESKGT

[24] = molecular target: Serine/threonine-protein kinase pim-2 (Homo sapiens, UniProt Q9P1W9); type: functional;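 note: value comes from a broad kinase panel profiling study in which PIM2 was one of the panel members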
[25] = molecular target: Serine/threonine-protein kinase D3 (Homo sapiens, UniProt O94806); type: functional;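 note: determined within a kinase panel screen, with PRKCN as the panel member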
Serine/threonine-protein kinase D3, sequence (O94806 whole entry): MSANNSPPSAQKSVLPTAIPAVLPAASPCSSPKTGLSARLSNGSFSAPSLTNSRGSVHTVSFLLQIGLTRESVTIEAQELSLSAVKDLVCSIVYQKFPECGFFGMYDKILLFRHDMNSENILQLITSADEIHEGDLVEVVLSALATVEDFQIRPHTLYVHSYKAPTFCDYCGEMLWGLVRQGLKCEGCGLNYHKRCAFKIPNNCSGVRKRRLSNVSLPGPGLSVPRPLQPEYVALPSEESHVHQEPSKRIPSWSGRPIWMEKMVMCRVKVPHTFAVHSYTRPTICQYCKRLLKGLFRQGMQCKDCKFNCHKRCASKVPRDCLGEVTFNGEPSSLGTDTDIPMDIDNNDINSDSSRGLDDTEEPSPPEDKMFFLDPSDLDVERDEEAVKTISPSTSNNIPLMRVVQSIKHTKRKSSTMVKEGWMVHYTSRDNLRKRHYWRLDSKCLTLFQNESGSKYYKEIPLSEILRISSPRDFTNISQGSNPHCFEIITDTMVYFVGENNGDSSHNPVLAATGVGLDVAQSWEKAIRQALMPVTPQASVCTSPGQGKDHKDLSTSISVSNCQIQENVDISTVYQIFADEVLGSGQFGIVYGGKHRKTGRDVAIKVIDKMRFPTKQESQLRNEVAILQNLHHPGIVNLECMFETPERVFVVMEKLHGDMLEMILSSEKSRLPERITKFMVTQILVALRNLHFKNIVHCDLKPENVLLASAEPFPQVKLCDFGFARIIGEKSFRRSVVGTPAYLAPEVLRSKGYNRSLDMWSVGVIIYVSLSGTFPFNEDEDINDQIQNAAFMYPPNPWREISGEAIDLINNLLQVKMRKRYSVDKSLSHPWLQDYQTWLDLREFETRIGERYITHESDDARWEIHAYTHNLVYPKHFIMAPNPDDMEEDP

[26] = molecular target: Dual specificity protein kinase CLK2 (Homo sapiens, UniProt P49760); type: functional
Dual specificity protein kinase CLK2, sequence (P49760 whole entry): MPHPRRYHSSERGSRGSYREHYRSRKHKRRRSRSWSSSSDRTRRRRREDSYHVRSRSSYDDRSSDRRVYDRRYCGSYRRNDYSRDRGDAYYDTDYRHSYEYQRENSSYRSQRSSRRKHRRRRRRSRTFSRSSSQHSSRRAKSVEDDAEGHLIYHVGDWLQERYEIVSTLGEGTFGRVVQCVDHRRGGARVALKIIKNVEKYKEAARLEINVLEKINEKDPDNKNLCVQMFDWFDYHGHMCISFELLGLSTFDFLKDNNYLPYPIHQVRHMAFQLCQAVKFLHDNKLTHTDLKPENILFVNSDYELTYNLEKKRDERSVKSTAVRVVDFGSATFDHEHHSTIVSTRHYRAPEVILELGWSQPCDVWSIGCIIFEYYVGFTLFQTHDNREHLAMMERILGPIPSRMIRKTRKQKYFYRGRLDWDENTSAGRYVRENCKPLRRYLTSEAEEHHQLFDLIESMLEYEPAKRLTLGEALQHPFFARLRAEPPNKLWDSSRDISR

[27] = molecular target: Dual specificity tyrosine-phosphorylation-regulated kinase 1A (Homo sapiens, UniProt Q13627); type: functional;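 note: measured against DYRK1A as one member of a broad kinome profiling panel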
[28] = molecular target: Serine/threonine-protein kinase D2 (Homo sapiens, UniProt Q9BZL6); type: functional;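 note: measured against PRKD2 as one member of a kinome-wide kinase profiling panel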
[29] = molecular target: Calcium/calmodulin-dependent protein kinase type II subunit alpha (Homo sapiens, UniProt Q9UQM7); assay: Navigating the Kinome. Panel member name: CAMK2A; type: functional
Calcium/calmodulin-dependent protein kinase type II subunit alpha, sequence (Q9UQM7 whole entry): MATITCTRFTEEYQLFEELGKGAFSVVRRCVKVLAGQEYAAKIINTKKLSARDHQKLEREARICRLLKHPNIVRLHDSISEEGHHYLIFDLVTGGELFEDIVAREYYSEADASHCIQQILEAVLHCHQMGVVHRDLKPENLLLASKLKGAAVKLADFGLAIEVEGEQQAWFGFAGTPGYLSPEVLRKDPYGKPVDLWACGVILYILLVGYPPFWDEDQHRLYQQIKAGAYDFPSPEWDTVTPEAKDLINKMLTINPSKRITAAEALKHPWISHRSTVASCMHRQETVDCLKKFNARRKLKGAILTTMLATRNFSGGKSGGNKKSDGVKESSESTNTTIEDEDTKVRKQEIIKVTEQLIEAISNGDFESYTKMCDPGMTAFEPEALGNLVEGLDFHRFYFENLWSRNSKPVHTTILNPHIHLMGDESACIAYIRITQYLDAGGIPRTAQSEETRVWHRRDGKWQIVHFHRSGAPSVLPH

[30] = molecular target: Mitogen-activated protein kinase 9 (Homo sapiens, UniProt P45984); type: functional;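 note: value from a kinome panel profiling assay, MAPK9 panel entry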
[31] = molecular target: Proto-oncogene tyrosine-protein kinase receptor Ret (Homo sapiens, UniProt P07949); type: functional;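 note: measured within a kinome-wide profiling panel, RET as the panel member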
[32] = molecular target: Platelet-derived growth factor receptor alpha (Homo sapiens, UniProt P16234); assay: Navigating the Kinome. Panel member name: PDGFRA; type: functional
[33] = molecular target: Calcium/calmodulin-dependent protein kinase type II subunit beta (Homo sapiens, UniProt Q13554); type: functional
[34] = molecular target: Serine/threonine-protein kinase pim-1 (Homo sapiens, UniProt P11309); type: functional
Serine/threonine-protein kinase pim-1, sequence (P11309 whole entry): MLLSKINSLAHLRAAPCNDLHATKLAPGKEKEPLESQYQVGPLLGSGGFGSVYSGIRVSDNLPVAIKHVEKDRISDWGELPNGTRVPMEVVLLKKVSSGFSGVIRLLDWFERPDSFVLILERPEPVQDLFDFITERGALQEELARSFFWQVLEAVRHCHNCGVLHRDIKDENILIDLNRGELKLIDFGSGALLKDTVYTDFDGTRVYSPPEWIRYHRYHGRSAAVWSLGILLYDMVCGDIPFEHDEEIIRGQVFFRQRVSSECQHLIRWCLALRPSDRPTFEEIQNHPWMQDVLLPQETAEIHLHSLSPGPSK

[35] = molecular target: G protein-coupled receptor kinase 5 (Homo sapiens, UniProt P34947); assay: Navigating the Kinome. Panel member name: GPRK5; type: functional
G protein-coupled receptor kinase 5, sequence (P34947 whole entry): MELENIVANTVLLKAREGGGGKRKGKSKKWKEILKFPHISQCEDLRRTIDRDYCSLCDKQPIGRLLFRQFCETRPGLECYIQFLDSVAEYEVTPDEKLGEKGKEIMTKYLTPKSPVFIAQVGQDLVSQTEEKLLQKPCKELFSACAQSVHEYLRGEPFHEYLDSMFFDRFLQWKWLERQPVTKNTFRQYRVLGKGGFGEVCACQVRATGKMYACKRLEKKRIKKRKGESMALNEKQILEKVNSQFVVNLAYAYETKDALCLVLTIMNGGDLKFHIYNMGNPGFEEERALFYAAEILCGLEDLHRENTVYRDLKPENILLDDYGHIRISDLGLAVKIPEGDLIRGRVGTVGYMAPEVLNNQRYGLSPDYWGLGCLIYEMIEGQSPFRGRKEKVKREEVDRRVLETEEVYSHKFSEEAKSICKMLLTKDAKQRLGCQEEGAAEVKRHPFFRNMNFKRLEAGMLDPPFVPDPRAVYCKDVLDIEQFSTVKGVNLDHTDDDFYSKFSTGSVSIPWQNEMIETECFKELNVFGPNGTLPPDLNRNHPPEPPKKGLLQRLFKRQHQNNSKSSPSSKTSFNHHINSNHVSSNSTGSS

[36] = molecular target: Protein kinase C zeta type (Homo sapiens, UniProt Q05513); type: functional;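 note: measured as one member of a broad kinase profiling panel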
Protein kinase C zeta type, sequence (Q05513 whole entry): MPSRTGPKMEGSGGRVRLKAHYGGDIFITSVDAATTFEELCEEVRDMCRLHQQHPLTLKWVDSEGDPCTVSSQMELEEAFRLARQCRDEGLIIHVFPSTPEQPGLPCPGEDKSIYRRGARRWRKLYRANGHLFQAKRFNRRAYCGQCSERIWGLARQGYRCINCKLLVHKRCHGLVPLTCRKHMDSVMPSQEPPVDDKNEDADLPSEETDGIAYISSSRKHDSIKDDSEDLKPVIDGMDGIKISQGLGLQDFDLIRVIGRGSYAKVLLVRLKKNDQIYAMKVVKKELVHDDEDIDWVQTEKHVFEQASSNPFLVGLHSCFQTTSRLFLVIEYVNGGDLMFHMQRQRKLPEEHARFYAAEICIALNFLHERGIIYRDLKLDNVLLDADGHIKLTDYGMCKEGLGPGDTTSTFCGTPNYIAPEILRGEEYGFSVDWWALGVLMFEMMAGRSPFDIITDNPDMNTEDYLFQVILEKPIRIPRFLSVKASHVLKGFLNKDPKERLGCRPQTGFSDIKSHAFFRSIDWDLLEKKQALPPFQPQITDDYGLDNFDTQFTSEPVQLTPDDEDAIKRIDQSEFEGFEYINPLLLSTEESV

[37] = molecular target: Protein kinase C gamma type (Homo sapiens, UniProt P05129); type: functional
[38] = molecular target: MAP kinase-activated protein kinase 3 (Homo sapiens, UniProt Q16644); type: functional;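 note: value comes from a kinome-wide profiling panel in which MAPKAPK3 is one of the panel members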
MAP kinase-activated protein kinase 3, sequence (Q16644 whole entry): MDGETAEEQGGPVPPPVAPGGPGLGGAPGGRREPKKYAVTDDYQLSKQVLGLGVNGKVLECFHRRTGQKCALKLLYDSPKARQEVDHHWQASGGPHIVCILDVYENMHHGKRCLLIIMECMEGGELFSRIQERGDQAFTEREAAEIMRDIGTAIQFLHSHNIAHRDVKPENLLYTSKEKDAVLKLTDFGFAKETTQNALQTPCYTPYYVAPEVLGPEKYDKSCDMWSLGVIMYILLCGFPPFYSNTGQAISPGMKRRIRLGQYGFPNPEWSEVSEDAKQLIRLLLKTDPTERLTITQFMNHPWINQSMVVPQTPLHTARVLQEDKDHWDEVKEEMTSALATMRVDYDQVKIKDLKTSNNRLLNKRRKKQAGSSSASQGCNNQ

CCNc1nc(C)c(-c2ccnc(Nc3ccc(N4CCNCC4)cc3)n2)s1
Ki (Wee1-like protein kinase): 0.0794 µM (active) | Ki [1]: 0.2 µM (active)

CC(C)CCN=C(S)Nc1ccc([N+](=O)[O-])cc1
IC50 [2]: > 50 µM (not active) | IC50 [3]: 9.34 µM (active) | IC50 [4]: 8.43 µM (active)

CCOc1ccc(NC(=O)CSc2nc(O)c(C)c(=O)n2-c2ccc(F)cc2)cc1
IC50 [5]: > 25 µM (active)

C[S+]([O-])c1nc(-c2ccc(Br)cc2)cc(-c2ccccc2)c1C#N (centres undefined)
EC50 [6]: 1.78 µM (active) | AC50 [7]: 19.8 µM (active) | AC50 [8]: 3.25 µM (active) | AC50 [9]: 7.73 µM (active) | IC50 [10]: > 64.6 µM (inactive) | EC50 [11]: 2.91 µM (active) | IC50 (Melanocortin receptor 4): 1.28 µM (active) | EC50 [12]: 5.38 µM (active) | EC50 (BJ [13]): 3.04 µM (active) | EC50 [14]: 7.72 µM (active) | EC50 [15]: 2.18 µM (active) | AC50 [16]: 5.21 µM (active) | EC50 (BJ [17]): 2.41 µM (active) | AC50 [18]: 25.1 µM (active) | AC50 [19]: 11.2 µM (active) | EC50 (BJ [20]): 5.13 µM (active) | EC50 [21]: 3.41 µM (active)

COc1ccccc1NC(=S)NN=C(C)c1ccccn1
AC50 [22]: 0.638 µM (active) | EC50 (Hexokinase HKDC1): 3.03 µM (active) | EC50 (Hexokinase-1): > 80 µM (inactive) | IC50 (Nonstructural protein 1): 25.8 µM (active)

COc1ccc(Oc2c(Cl)cnn(Cc3cccc4ccccc34)c2=O)cc1OC
IC50 [23]: 1.44 µM (active)

Cn1ccc2c(-c3ccccc3F)nc(N(C(N)=O)c3c(F)cccc3F)nc21
Ki [24]: 1.26 µM (active) | Ki [25]: 2 µM (active) | Ki [26]: 7.94 µM (active) | Ki [27]: 3.16 µM (active) | Ki [28]: 3.16 µM (active)

CCN(CCN(C)C)C(=O)c1cccc(-n2nc(C(C)(C)C)cc2NC(=O)Nc2cccc3ccccc23)c1
Ki [25]: 3.16 µM (active) | Ki [29]: > 7.94 µM (inactive) | Ki [30]: 3.16 µM (active) | Ki [31]: 1.58 µM (active) | Ki [32]: 1.26 µM (active)

CNCCONC(=O)c1ccc(F)c(F)c1Nc1ccc(I)cc1F
Ki [33]: 7.94 µM (active) | Ki [34]: 2 µM (active)

O=c1ncn2nc(Sc3ccc(F)cc3F)ccc2c1-c1c(Cl)cccc1Cl [NEFLAMAPIMOD]
Ki [35]: > 3.98 µM (inactive) | Ki [36]: > 7.94 µM (inactive) | Ki [37]: > 7.94 µM (inactive) | Ki [38]: > 10 µM (inactive)
